Experimental data as given in patent US7019000B1, “Method of treating a disease condition caused or exacerbated by an HPV” (Institute of Molecular & Cell Biology, priority 1998, dated 2006).

Experiments:
[1] = test system: SiHa, HeLa, 444 and HaCat cells; test: Microscopic observation of cell viability (FIG. 4); assay type: cell-based, human; settings: E6-dependent cells (SiHa and HeLa) vs E6-independent cells (444 and HaCat)
Procedure: FIG. 4 photographically depicts viability of SiHa, HeLa, 444 and HaCat cells when treated with C16 compound.
Cell viability and the cytotoxic specificity for a number of other compounds of Formula (I) and (II) were also determined.

[2] = molecular target: T1, E6 binding to E6BP and E6AP (Human papillomavirus type 16, UniProt P03126); test: GST-pulldown experiment, in vitro translated E6 binding to GST-E6BP/GST-E6AP; parameters: species or system HPV-16; settings: 35S-Cys in vitro translated E6
T1 construct: The open reading frame of HPV-16 E6, cloned into the Hind III and PstI site of the pSP64 plasmid; made in house; host or cells: TNT-SP6 coupled reticulocyte lysate (Promega) for E6; E. coli AB1899 for the GST fusions
T1 sequence (P03126 whole entry, the tested form may be a part): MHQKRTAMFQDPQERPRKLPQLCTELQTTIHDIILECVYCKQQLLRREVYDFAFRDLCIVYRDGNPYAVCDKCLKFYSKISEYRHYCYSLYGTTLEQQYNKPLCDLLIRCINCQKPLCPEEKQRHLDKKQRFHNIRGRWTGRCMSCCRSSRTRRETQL
Procedure: The open reading frame of HPV-16 E6, cloned into the Hind III and PstI site of the pSP64 plasmid (33), was in vitro translated with ^35S-cysteine by using the TNT-SP6 Coupled Reticulocyte Lysate System as recommend by the manufacturer (Promega). All washing and binding reactions were performed with the E6BP-binding buffer described (5) but without DTT (100 mM NaCl, 100 mM Tris-HCl pH8.0, 1% NP40, 0.1% nonfat dry milk and 1 mM PMSF. 40 μl of in vitro translated E6 plus 360 μl of E6BP-binding buffer were incubated for 2 hrs at room temperature with test compounds at difference concentrations from 0–1 mM (dissolved in DMSO at 1%), 5 mM EDTA, and H2O2 at 0.3% (85 mM). The sample was then passed over columns captaining glutathione-sepharose beads with bound GST, GST-E6, GST-E6BP or GST-E6AP proteins. The beads were heated to 95° C. in 50 μl Laemmli sample buffer (BIO-RAD) with 2.5% 2-mercaptoethanol, subjected to electrophoresis on a 15% polyacrylamide gel, fixed, stained, and autoradiographed. Interference with complex formation identified reactive compounds. Desitometric quantification was performed with a BIO-RAD/GS700 imaging desitometer.

[3] = test system: HT3, MCF7, HaCat and HeLa-fibroblast hybrid cell line 444; test: Cell viability (WST1 assay), HPV-negative cells and 444 hybrid; assay type: cell-based, human; settings: treated 3 times in 3 days
From the text: (§1) All cell lines were obtained from the American Type Culture Collection (Manassas, Va.) unless otherwise noted. SiHa (human cervical epithelial tumor line, HPV16-positive), CaSki (human cervical epithelial tumor line, HPV16-positive), HaCat (immortalized human skin epithelial cell line, HPV-negative), HeLa (human cervical epithelial tumor line, HPV18-positive), 444 (hybrid of HeLa and fibroblast, HPV18-positive) obtained from Eric Stanbridge (Universitv of California, Irvine), MCF7 (human mammary epithelial tumor cell line, HPV-negative), HT3 (human cervical epithelial tumor cell line, HPV-negative) was obtained from the German Cancer Research Institute/DKFZ-Heidelberg, and HepG2, (human liver epithelial tumor cell line, HPV-negative), were grown in Dulbecco's modified Eagle medium (DMEM) supplemented with 10% fetal calf serum, 100 U penicillin and 1000 U streptomycin. Cells were allowed to attach to the surface of microwell dishes overnight and subsequently, incubated with medium containing the zinc ejecting compounds at the concentrations (10–100 μM). Viability of the cells was scored by measuring the absorption of the tetrazolium salt WST1 (Roche Molecular Biochemicals, Mannheim, Germany) in an Elisa-plate reader (Tecan, Salzburg, Austria) at a wavelength of 450 nm and a reference wavelength of 630 nm. […]

SiHa, Caski, HeLa = test: Cell viability (WST1 assay), cervical epithelial tumour cells; assay type: cell-based, human; settings: 50 μM, treated 3 times in 3 days
From the text: as §1

[4] = molecular target: T2, binding of E6 with E6AP and E6BP (Human papillomavirus type 16, UniProt P03126); parameters: species or system HPV-16
T2 construct: The full length HPV16 E6 gene was amplified via polymerase chain reaction and cloned in the vector pGeX4T2; made in house; host or cells: E. coli strain AB1899
T2 sequence (P03126 whole entry): as the sequence (P03126 whole entry, the tested form may be a part) above
From the text: BIACORE allows real time analysis of bimolecular interactions without the need for isotopic or enzymatic labelling. BIACORE technology is based on the optical surface plasmon resonance (SPR), a technique that allows for detecting small changes in the refractive index on the surface of a thin gold film coated with a dextran matrix. Typically, one of the binding partners (termed the ligand) is covalently linked to the dextran matrix, while the other partner (termed the analyte) is introduced in a flow passing over the surface. The change in refractive index resulting from the interaction of the molecules is expressed in resonance units (RU): a SPR response of 1000 RU corresponds to a change of the surface concentration of the analyte of 1 ng protein/mm^2. GST-E6AP and GST-E6BP were used as ligands and GSTE6 was used as the analyte. […] Further controls included using the dextran matrix alone or GST as the ligand.
Binding of GST-E6 to GST-E6BP, GST-E6AP and GST was monitored by surface plasmon resonance (SPR) on a BIACORE 2000 machine (Biacore AB, Uppsala, Sweden). […] Typically 6000–10000 RU of GST, E6BP and E6AP were immobilized on three difference flowcells. Aliquots of purified HPV-16 GST-E6 (7 μM in 10 mM GSH, 50 mM Tris/PBS buffer, pH 8.2) were incubated with either 400 μM compound, or 5 mM EDTA, or 0.6% (170 mM) H2O2 for 2 hrs at room temperature. Then 10 μl of sample was injected at 1 μl/min over the three immobilized ligands using the sequential flow mode. The interactions between GST-E6 and ligands were monitored by the change of resonance signal in arbitrary units (RU).

[5] = test system: HPV containing cell lines as HeLa, SiHa and Caski, compared to HPV-negative cell lines MCF7, HEPG2, (HaCat, HT3, 444); test: Cell viability (WST1 assay), panel of HPV-positive and HPV-negative cell lines; assay type: cell-based, human
Procedure: Zinc finger proteins are required for maintenance of cell viability. Preferably, the compounds for use in the present invention are specific in their ability to affect the viability of MPV containing cells, with little or no cytotoxic effects on the cellular functioning of healthy non-MPV containing cells. The viability of MPV-infected cells (and non infected cells) in the presence of compounds of Formulae (I) or (II) can be measured by incubating with the tetrazolium salt WST1 (Roche Molecular Biochemicals, Manneheim Germany) and measuring the absorption readings thereof (WST1 assay).
All cell lines were obtained from the American Type Culture Collection (Manassas, Va.) unless otherwise noted. SiHa (human cervical epithelial tumor line, HPV16-positive), CaSki (human cervical epithelial tumor line, HPV16-positive), HaCat (immortalized human skin epithelial cell line, HPV-negative), HeLa (human cervical epithelial tumor line, HPV18-positive), 444 (hybrid of HeLa and fibroblast, HPV18-positive) obtained from Eric Stanbridge (Universitv of California, Irvine), MCF7 (human mammary epithelial tumor cell line, HPV-negative), HT3 (human cervical epithelial tumor cell line, HPV-negative) was obtained from the German Cancer Research Institute/DKFZ-Heidelberg, and HepG2, (human liver epithelial tumor cell line, HPV-negative), were grown in Dulbecco's modified Eagle medium (DMEM) supplemented with 10% fetal calf serum, 100 U penicillin and 1000 U streptomycin. Cells were allowed to attach to the surface of microwell dishes overnight and subsequently, incubated with medium containing the zinc ejecting compounds at the concentrations (10–100 μM). Viability of the cells was scored by measuring the absorption of the tetrazolium salt WST1 (Roche Molecular Biochemicals, Mannheim, Germany) in an Elisa-plate reader (Tecan, Salzburg, Austria) at a wavelength of 450 nm and a reference wavelength of 630 nm.
A total of 10 000 cells per well were plated on 24 well plates, after attachment overnight, they were treated 3 times in 3 days with C16 at 10 μM and 50 μM. The activity of C16 was also compared with that of C4 (azodicarbonamide) which causes ejection of zinc from HIV-1 NCp7 and is currently used in clinical trials for the treatment of AIDS.

C1CN(SSN2CCOCC2)CCO1 [Compound C16]
microscopic observation of cells [1]: differential effect
inhibition of E6 binding to E6BP and E6AP (GST-pulldown, FIG. 2) [2]: inhibits E6 binding to both cellular proteins
effect on cell viability [3]: little or no effect
inhibition of cell viability (SiHa, Caski, HeLa): substantial and specific inhibition of cell viability
inhibitory activity for E6 binding to both E6BP and E6AP (BIACORE) [4]: inhibitory activity for E6 binding to both E6BP and E6AP
BIACORE (E6BP/E6AP) ([4]; 400 μM compound, 2 hrs at room temperature, GST-E6 7 μM in 10 mM GSH): + (compound interferes in binding of E6 with E6AP and E6BP, binding is less than 50% of the corresponding E6-DMSO value.)
effective concentration in cell viability assays [5]: 50 µM
WST1 ([5]; 50 μM in cell culture): +
WST1-spec ([5]; 50 μM, HPV containing vs HPV-negative cell lines): +
